Data from the supplement of paper PMC6331611.
In brackets after ≈: the same amount, converted by molar mass. Where a name gives a salt, the structure may show the parent alone.

Assays:
[1] = test system: Salmonella enterica serovar Typhimurium SL1344; test: intracellular MIC (10-fold luminescence reduction); higher = less potent; settings: RAW264.7 macrophages
[2] = test system: RAW264.7; test: cytotoxicity (LDH release relative to maximum lysis); higher = more toxic; settings: 50 µM; 2 h
[3] = test system: Salmonella enterica serovar Typhimurium SL1344

intracellular MIC [1] [µM] | MIC ([3]; LPM pH 5.8) [µM] | MIC ([3]; MHB) [µM] | MIC ([3]; MOPS glucose minimal medium) [µM] | Structure (SMILES) | cytotoxicity [2] [%]
> 50 | ≤ 0.78 | ≤ 0.78 | ≤ 0.78 | CCOC(=O)C1=C(COCCN)NC(C)=C(C(=O)OC)C1c1ccccc1Cl (centres undefined) [AMLODIPINE BESYLATE] | 22.5
12.5 | 50 (≈ 14.9 µg/mL) | > 50 | > 50 | CO[C@H]1O[C@@H]2O[C@@]3(C)CC[C@H]4[C@H](C)CC[C@@H]([C@H]1C)[C@@]24OO3 [ARTEMETHER] | 7.51
≤ 0.78 | ≤ 0.78 | 25 (≈ 6.11 µg/mL) | ≤ 0.78 | Nc1ncn([C@@H]2O[C@H](CO)[C@@H](O)[C@H]2O)c(=O)n1 [AZACITIDINE] | 16.4
≤ 0.78 | ≤ 0.78 | ≤ 0.78 | ≤ 0.78 | CC[C@H]1OC(=O)[C@H](C)[C@@H](O[C@H]2C[C@@](C)(OC)[C@@H](O)[C@H](C)O2)[C@H](C)[C@@H](O[C@@H]2O[C@H](C)C[C@H](N(C)C)[C@H]2O)[C@](C)(O)C[C@@H](C)CN(C)[C@H](C)[C@@H](O)[C@]1(C)O [AZITHROMYCIN] | 21.1
1.56 | ≤ 0.78 | ≤ 0.78 | ≤ 0.78 | C[C@H]1[C@H](NC(=O)/C(=N\OC(C)(C)C(=O)O)c2csc(N)n2)C(=O)N1S(=O)(=O)O [AZTREONAM] | 6.82
12.5 | > 50 | > 50 | > 50 | CCCCC(=O)O[C@]1(C(=O)CO)[C@@H](C)C[C@H]2[C@@H]3CCC4=CC(=O)C=C[C@]4(C)[C@@]3(F)[C@@H](O)C[C@@]21C [BETAMETHASONE VALERATE] | 6.63
≤ 0.78 | > 50 | > 50 | > 50 | O=C(CCCN1CCC(O)(c2ccc(Br)cc2)CC1)c1ccc(F)cc1 [BROMPERIDOL] | 15
> 50 | ≤ 0.78 | 50 (≈ 15.1 µg/mL) | 50 (≈ 15.1 µg/mL) | Oc1c(Br)cc(Br)c2cccnc12 [BROXYQUINOLINE] | 15
> 50 | > 50 | > 50 | > 50 | COc1cc(CNC(=O)CCCC/C=C/C(C)C)ccc1O [CAPSAICIN] | 19.5
≤ 0.78 | 25 (≈ 6.56 µg/mL) | > 50 | 50 (≈ 13.1 µg/mL) | COC(=O)N/N=C/c1c[n+]([O-])c2ccccc2[n+]1[O-] [CARBADOX] | 15.6
1.56 | ≤ 0.78 | > 50 | ≤ 0.78 | CCCCCCNC(=O)n1cc(F)c(=O)[nH]c1=O [CARMOFUR] | 13.7
> 50 | ≤ 0.78 | ≤ 0.78 | ≤ 0.78 | C=CC1=C(C(=O)O)N2C(=O)[C@@H](NC(=O)/C(=N\O)c3csc(N)n3)[C@H]2SC1 [CEFDINIR] | 19.4
> 50 | 50 (≈ 31 µg/mL) | 50 (≈ 31 µg/mL) | 25 (≈ 15.5 µg/mL) | CO/N=C(\C(=O)N[C@@H]1C(=O)N2C(C(=O)OCOC(=O)C(C)(C)C)=C(/C=C\c3scnc3C)CS[C@H]12)c1csc(N)n1 [CEFDITORIN PIVOXIL] | 21
≤ 0.78 | ≤ 0.78 | ≤ 0.78 | ≤ 0.78 | CO/N=C(\C(=O)N[C@@H]1C(=O)N2C(C(=O)O)=C(C[N+]3(C)CCCC3)CS[C@H]12)c1csc(N)n1 [CEFEPIME HYDROCHLORIDE] | 15.4
1.56 | 1.17 | ≤ 0.78 | ≤ 0.78 | CO/N=C(\C(=O)N[C@@H]1C(=O)N2C(C(=O)O)=C(CSc3nnnn3C)CS[C@H]12)c1csc(N)n1 [CEFMENOXIME HYDROCHLORIDE] | 8.15
≤ 0.78 | ≤ 0.78 | ≤ 0.78 | ≤ 0.78 | CO/N=C(\C(=O)N[C@@H]1C(=O)N2C(C(=O)O)=C(COC(C)=O)CS[C@H]12)c1csc(N)n1 [CEFOTAXIME SODIUM] | 7.17
1.56 | ≤ 0.78 | ≤ 0.78 | ≤ 0.78 | CO[C@@]1(NC(=O)C2SC(=C(C(N)=O)C(=O)O)S2)C(=O)N2C(C(=O)O)=C(CSc3nnnn3C)CS[C@@H]21 (some centres undefined) [CEFOTETAN] | 7.79
> 50 | ≤ 0.78 | 12.5 (≈ 6.83 µg/mL) | ≤ 0.78 | CC(C)(O/N=C(\C(=O)N[C@@H]1C(=O)N2C(C(=O)[O-])=C(C[n+]3ccccc3)CS[C@H]12)c1csc(N)n1)C(=O)O [CEFTAZIDIME] | 20.8
> 50 | ≤ 0.78 | ≤ 0.78 | ≤ 0.78 | Nc1nc(/C(=C/CC(=O)O)C(=O)N[C@@H]2C(=O)N3C(C(=O)O)=CCS[C@H]23)cs1 [CEFTIBUTEN] | 21
≤ 0.78 | ≤ 0.78 | ≤ 0.78 | ≤ 0.78 | CO/N=C(\C(=O)N[C@@H]1C(=O)N2C(C(=O)O)=C(CSC(=O)c3ccco3)CS[C@H]12)c1csc(N)n1 [CEFTIOFUR HYDROCHLORIDE] | 15.6

intracellular MIC [1] [µM] | MIC ([3]; LPM pH 5.8) [µM] | MIC ([3]; MHB) [µM] | MIC ([3]; MOPS glucose minimal medium) [µM] | Structure (SMILES) | cytotoxicity [2] [%]
> 50 | ≤ 0.78 | ≤ 0.78 | ≤ 0.78 | CO/N=C(\C(=O)N[C@@H]1C(=O)N2C(C(=O)O)=C(CSc3nc(=O)c(O)nn3C)CS[C@H]12)c1csc(N)n1 [CEFTRIAXONE SODIUM TRIHYDRATE] | 19.6
> 50 | > 50 | > 50 | > 50 | COc1ccc2cc1Oc1ccc(cc1)C[C@H]1c3c(cc4c(c3Oc3cc5c(cc3OC)CCN(C)[C@@H]5C2)OCO4)CCN1C [CEPHARANTHINE] | 13.1
≤ 0.78 | 6.25 | 25 | 12.5 | O=C(O)CCC(=O)OC[C@@H](NC(=O)C(Cl)Cl)[C@H](O)c1ccc([N+](=O)[O-])cc1 [CHLORAMPHENICOL SODIUM SUCCINATE] | 8.03
≤ 0.78 | ≤ 0.78 | 12.5 (≈ 4.04 µg/mL) | 3.13 (≈ 1.01 µg/mL) | O=C(N[C@H](CO)[C@H](O)c1ccc([N+](=O)[O-])cc1)C(Cl)Cl [CHLORAMPHENICOL] | 8.21
≤ 0.78 | > 50 | > 50 | > 50 | Cc1nc2ccccc2n1Cc1ccc(Cl)cc1 [CHLORMIDAZOLE] | 12.9
> 50 | > 50 | > 50 | > 50 | CC(C)NC(=N)NC(=N)Nc1ccc(Cl)cc1 [CHLOROGUANIDE HYDROCHLORIDE] | 6.72
> 50 | ≤ 0.78 | 25 (≈ 5.35 µg/mL) | 25 (≈ 5.35 µg/mL) | Oc1c(Cl)cc(Cl)c2cccnc12 [CHLOROXINE] | 20.5
≤ 0.78 | ≤ 0.78 | 25 | 6.25 | CN(C)[C@@H]1C(O)=C(C(N)=O)C(=O)[C@@]2(O)C(O)=C3C(=O)c4c(O)ccc(Cl)c4[C@@](C)(O)[C@H]3C[C@@H]12 [CHLORTETRACYCLINE HYDROCHLORIDE] | 8.37
> 50 | ≤ 0.78 | > 50 | > 50 | Cc1cc(C2CCCCC2)n(O)c(=O)c1 [CICLOPIROX OLAMINE] | 15.5
≤ 0.78 | ≤ 0.78 | > 50 | > 50 | CCn1nc(C(=O)O)c(=O)c2cc3c(cc21)OCO3 [CINOXACIN] | 8.11
≤ 0.78 | > 50 | – | ≤ 0.78 | O=C(O)c1cn(C2CC2)c2cc(N3CCNCC3)c(F)cc2c1=O [CIPROFLOXACIN] | 21.5
≤ 0.78 | ≤ 0.78 | ≤ 0.78 | ≤ 0.78 | NC1CCN(c2c(F)cc3c(=O)c(C(=O)O)cn(C4CC4)c3c2Cl)C1 (centres undefined) [CLINAFOXACIN HYDROCHLORIDE] | 15.8
> 50 | ≤ 0.78 | 50 (≈ 15.3 µg/mL) | 50 (≈ 15.3 µg/mL) | Oc1c(I)cc(Cl)c2cccnc12 [CLIOQUINOL] | 20
> 50 | > 50 | > 50 | > 50 | O=S(=O)(O)NC1CCCCC1 [CYCLAMIC ACID] | 7.97
> 50 | > 50 | > 50 | > 50 | CN1CCC(=C2c3ccccc3C=Cc3ccccc32)CC1 [CYPROHEPTADINE HYDROCHLORIDE] | 6.22
≤ 0.78 | ≤ 0.78 | 6.25 | 1.56 | CN(C)[C@@H]1C(O)=C(C(N)=O)C(=O)[C@@]2(O)C(O)=C3C(=O)c4c(O)ccc(Cl)c4[C@@H](O)[C@H]3C[C@@H]12 [DEMECLOCYCLINE HYDROCHLORIDE] | 8.71
25 | > 50 | > 50 | > 50 | CN(C)CC(c1ccc(O)cc1)C1(O)CCCCC1 (centres undefined) [DESVENLAFAXINE SUCCINATE] | 8.25
1.56 | 50 (≈ 13 µg/mL) | 1.56 (≈ 0.406 µg/mL) | 6.25 (≈ 1.63 µg/mL) | COc1ccc(Cc2cnc(N)nc2N)cc1OC [DIAVERIDINE] | 6.9
1.56 | ≤ 0.78 | ≤ 0.78 | ≤ 0.78 | CN1CCN(c2cc3c(cc2F)c(=O)c(C(=O)O)cn3-c2ccc(F)cc2)CC1 [DIFLOXACIN HYDROCHLORIDE] | 6.88

Structure (SMILES) | intracellular MIC [1] [µM] | MIC ([3]; LPM pH 5.8) [µM] | MIC ([3]; MHB) [µM] | MIC ([3]; MOPS glucose minimal medium) [µM] | cytotoxicity [2] [%]
CC(=O)OC1CN2CCC1CC2 (centres undefined) [ACECLIDINE] | > 50 | > 50 | > 50 | > 50 | 20.3
CCCCCCCCCCCCCCCC[n+]1ccccc1 [CETYLPYRIDINIUM CHLORIDE] | ≤ 0.78 | 12.5 | 50 | 12.5 | 63
